pKi: −log10 of the molar value.
Experiments:
[1] = target: T1, Human Recombinant Glucocorticoid Receptor (Homo sapiens, UniProt P04150); assay: Glucocorticoid receptor binding displacement assay with 3H-dexamethasone; conditions: displacement of 2.5 nM 3H-dexamethasone; Ki from IC50 by Cheng-Prusoff; read-out: GR Binding Ki
T1 construct: This GR was a full-length steroid hormone receptor likely to be associated with heat-shock and other endogenous proteins; host or cells: baculovirus-infected insect cells
T1 sequence (P04150 1-777): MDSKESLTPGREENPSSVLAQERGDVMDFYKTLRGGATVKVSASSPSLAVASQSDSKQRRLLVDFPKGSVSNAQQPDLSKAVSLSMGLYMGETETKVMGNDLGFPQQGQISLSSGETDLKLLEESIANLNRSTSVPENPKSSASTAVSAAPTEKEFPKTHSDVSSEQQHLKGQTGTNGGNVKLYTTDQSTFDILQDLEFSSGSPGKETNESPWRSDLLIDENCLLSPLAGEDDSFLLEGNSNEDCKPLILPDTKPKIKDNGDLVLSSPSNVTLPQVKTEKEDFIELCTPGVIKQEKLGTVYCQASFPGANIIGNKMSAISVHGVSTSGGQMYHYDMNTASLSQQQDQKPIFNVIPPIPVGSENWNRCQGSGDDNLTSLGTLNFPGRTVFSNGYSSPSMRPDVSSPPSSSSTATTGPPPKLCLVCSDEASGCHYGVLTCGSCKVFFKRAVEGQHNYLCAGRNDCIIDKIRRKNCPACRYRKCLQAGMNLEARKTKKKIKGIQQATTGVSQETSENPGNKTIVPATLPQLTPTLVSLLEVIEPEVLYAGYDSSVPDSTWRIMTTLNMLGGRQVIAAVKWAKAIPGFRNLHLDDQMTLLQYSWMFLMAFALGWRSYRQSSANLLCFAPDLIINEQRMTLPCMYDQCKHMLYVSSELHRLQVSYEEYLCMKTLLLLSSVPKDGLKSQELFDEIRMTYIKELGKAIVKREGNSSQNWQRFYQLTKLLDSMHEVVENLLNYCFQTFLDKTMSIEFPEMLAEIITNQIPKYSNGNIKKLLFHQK

[2] = target: T2, glucocorticoid receptors (GR) in SW1353/MMTV-5 cells (Homo sapiens, UniProt P04150); assay: GR functional assay using SW1353/MMTV-5 cells (MMTV-luciferase reporter); assay type: cell-based
T2 construct: contains endogenous glucocorticoid receptors; endogenous in cells; host or cells: SW1353/MMTV-5 (human chondrosarcoma, stably transfected with the pMAMneo-Luc reporter only)
T2 sequence (P04150 1-777): T1 sequence (P04150 1-777)
Procedure, shortened: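 Human chondrosarcoma line stably carrying firefly luciferase under an MMTV LTR glucocorticoid-responsive element, with endogenous GR. Cells were plated in 96-well plates and held 24 hrs in geneticin-free medium without CO2.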

Row | Structure (SMILES) | pKi [1] | pKi [2]
1 | O=C(OCC1CC(O)C1)[C@]12Cc3cnn(-c4ccc(F)cc4)c3C=C1CCN(S(=O)(=O)c1ccc(N3CCOCC3)nc1)C2 (stereo partly drawn) [Example 53, (R)-1-(4-Fluorophenyl)-6-(6-morpholin-4-yl-pyridine-3-sulfonyl]-1,4,5,6,7,8-hexahydro-1,2,6-triaza-cyclopenta[b]naphthalene-4a-carboxylic acid 3-hydroxycyclobutylmethyl ester] | < 9.00 | 7.30 to 8.00
2 | CC1(COC(=O)[C@]23Cc4cnn(-c5ccc(F)cc5)c4C=C2CCN(S(=O)(=O)c2ccc(N4CCOCC4)nc2)C3)COC1 [Example 54, (R)-1-(4-Fluorophenyl)-6-(6-morpholin-4-yl-pyridine-3-sulfonyl]-1,4,5,6,7,8-hexahydro-1,2,6-triaza-cyclopenta[b]naphthalene-4a-carboxylic acid 3-methyloxetan-3-ylmethyl ester] | < 9.00 | < 7.30
3 | O=C(OCCO)[C@]12Cc3cnn(-c4ccc(F)cc4)c3C=C1CCN(S(=O)(=O)c1ccc(N3CCOCC3)nc1)C2 [Example 55, (R)-1-(4-Fluorophenyl)-6-(6-morpholin-4-yl-pyridine-3-sulfonyl]-1,4,5,6,7,8-hexahydro-1,2,6-triaza-cyclopenta[b]naphthalene-4a-carboxylic acid 2-hydroxethyl ester] | < 9.00 | < 7.30
4 | CN(C)CCOC(=O)[C@]12Cc3cnn(-c4ccc(F)cc4)c3C=C1CCN(S(=O)(=O)c1ccc(N3CCOCC3)nc1)C2 [Example 56, (R)-1-(4-Fluorophenyl)-6-(6-morpholin-4-yl-pyridine-3-sulfonyl]-1,4,5,6,7,8-hexahydro-1,2,6-triaza-cyclopenta[b]naphthalene-4a-carboxylic acid 2-dimethylaminoethyl ester] | < 9.00 | < 7.30
5 | Cc1cc(COC(=O)[C@]23Cc4cnn(-c5ccc(F)cc5)c4C=C2CCN(S(=O)(=O)c2ccc(N4CCOCC4)nc2)C3)no1 [Example 57, (R)-1-(4-Fluorophenyl)-6-(6-morpholin-4-yl-pyridine-3-sulfonyl]-1,4,5,6,7,8-hexahydro-1,2,6-triaza-cyclopenta[b]naphthalene-4a-carboxylic acid 5-methylisoxazol-3-ylmethyl ester] | 9.00 to 9.30 | 7.30 to 8.00
6 | O=C(OCC1CC1)[C@]12Cc3cnn(-c4ccc(F)cc4)c3C=C1CCN(S(=O)(=O)c1ccc(C(F)(F)F)nc1)C2 [Example 58] | 9.00 to 9.30 | > 8.00
7 | COc1ccc(S(=O)(=O)N2CCC3=Cc4c(cnn4-c4ccc(F)cc4)C[C@]3(C(=O)OCC3CCC3)C2)cn1 [Example 59, (R)-1-(4-Fluorophenyl)-6-(6-methoxypyridine-3-sulfonyl)-1,4,5,6,7,8-hexahydro-1,2,6-triaza-cyclopenta[b]naphthalene-4a-carboxylic acid cyclobutylmethyl ester] | 9.00 to 9.30 | > 8.00
8 | Cc1cc(COC(=O)[C@]23Cc4cnn(-c5ccc(F)cc5)c4C=C2CCN(S(=O)(=O)c2ccc(N4CC[C@@H](F)C4)nc2)C3)no1 [Example 60, (R)-1-(4-Fluorophenyl)-6-[6-((R)-3-fluoropyrrolidin-1-yl)-pyridine-3-sulfonyl]-1,4,5,6,7,8-hexahydro-1,2,6-triaza-cyclopenta[b]naphthalene-4a-carboxylic acid 5-methylisoxazol-3-ylmethyl ester] | 9.00 to 9.30 | 7.30 to 8.00
9 | O=C(OCC1CC(O)C1)[C@]12Cc3cnn(-c4ccc(F)cc4)c3C=C1CCN(S(=O)(=O)c1ccc(N3CC[C@@H](F)C3)nc1)C2 (stereo partly drawn) [Example 61, (R)-1-(4-Fluorophenyl)-6-[6-((R)-3-fluoropyrrolidin-1-yl)-pyridine-3-sulfonyl]-1,4,5,6,7,8-hexahydro-1,2,6-triaza-cyclopenta[b]naphthalene-4a-carboxylic acid 3-hydroxy cyclobutylmethyl ester] | < 9.00 | 7.30 to 8.00
10 | O=S(=O)(c1ccc(N2CCOCC2)nc1)N1CCC2=Cc3c(cnn3-c3ccc(F)cc3)C[C@]2(CN2CC[C@H](O)C2)C1 [Example 62, (S)-1-[(S)-1-(4-Fluorophenyl)-6-[6-morpholin-4-yl-pyridine-3-sulfonyl)-1,4,5,6,7,8-hexahydro-1,2,6-triaza-cyclopenta[b]naphthalene-4a-ylmethyl]-pyrrolidin-3-ol] | < 9.00 | < 7.30
11 | O=S(=O)(c1ccc(N2CCOCC2)nc1)N1CCC2=Cc3c(cnn3-c3ccc(F)cc3)C[C@]2(CN2CC[C@@H](O)C2)C1 [Example 63, (R)-1-[(S)-1-(4-Fluorophenyl)-6-[6-morpholin-4-yl-pyridine-3-sulfonyl)-1,4,5,6,7,8-hexahydro-1,2,6-triaza-cyclopenta[b]naphthalene-4a-ylmethyl]-pyrrolidin-3-ol] | < 9.00 | 7.30 to 8.00
12 | COCCOC[C@]12Cc3cnn(-c4ccc(F)cc4)c3C=C1CCN(S(=O)(=O)c1ccc(N3CCOCC3)nc1)C2 [Example 64, (R)-1-(4-Fluoro-phenyl)-4a-(2-methoxy-ethoxymethyl)-6-(6-morpholin-4-yl-pyridine-3-sulfonyl)-4,4a,5,6,7,8-hexahydro-1H-1,2,6-traza-cyclopenta[b]naphthalene] | 9.00 to 9.30 | > 8.00

Source: patent US8598154B2 (Corcept Therapeutics, Inc., priority 2010, dated 2013)
